Laboratory results published in BigSolDB 2.1.

Cc1occc(=O)c1O
solubility (mole fraction)
Conditions	288.15 K	293.15 K	298.15 K	303.15 K	308.15 K	313.15 K	318.15 K	323.15 K
in 1,2-dichloroethane	0.0109	0.0143	0.0174	0.0214	0.0262	0.0333	0.0378	0.048
in acetone	0.0101	0.0116	0.0134	0.0157	0.0195	0.023	0.0265	0.0311
in acetonitrile	0.00735	0.00861	0.0107	0.0136	0.016	0.0209	0.0258	0.0325
in ethanol	0.00894	0.0106	0.0125	0.0156	0.0211	0.0273	0.0331	0.0427
in ethyl acetate	0.0115	0.013	0.0153	0.02	0.0225	0.0276	0.0337	0.0413
in isobutanol	0.00638	0.00832	0.0108	0.0134	0.0185	0.0238	0.0293	0.0349
in isopropanol	0.00683	0.00812	0.0103	0.0129	0.0161	0.021	0.0265	0.0328
in methanol	0.0135	0.0159	0.0185	0.0223	0.0267	0.0325	0.0373	0.0465
in n-butanol	0.00705	0.00917	0.0115	0.0143	0.0182	0.0228	0.03	0.0365
in n-butyl acetate	0.00889	0.0101	0.0128	0.0148	0.0193	0.0229	0.0281	0.0317
in n-propanol	0.00705	0.00931	0.0118	0.0144	0.0182	0.0233	0.028	0.0341
in n-propyl acetate	0.00974	0.0105	0.013	0.0151	0.0181	0.0226	0.026	0.0316
in sec-butanol	0.00716	0.00927	0.0111	0.0153	0.0177	0.0244	0.0304	0.0408
